Measured values reported in PMC8901748, “A novel prostaglandin E receptor 4 (EP4) small molecule antagonist induces articular cartilage regeneration” (Cell Discovery, 2022).

Tests used:
[1] = tested on: articular cartilage defect; experiment: DMM surgery-induced CD mouse model; format: in vivo, mice (strain C57/BL/6); settings: Grapiprant 30 mg/kg, HL-43 10 mg/kg, compared to vehicle
Text: EP4^f/f mice[67] were crossed with the Col2-cre strain to generate Col2-cre; EP4^f/f (EP4^Col2) mice, or were crossed with Aggrecan-creERT2[68] mice to generate EP4^f/f; Aggrecan-CreERT2 (EP4^AcanERT2) mice. Mice were maintained at the animal center of East China Normal University. All mouse experiments were approved by Ethics Committee at East China Normal University. Mice of the same genetic background were generated and raised under identical conditions. Sex-matched littermate mice were compared. For the DMM surgery-induced CD mouse model, WT mice (strain C57/BL/6) or EP4^Acan mice were used, n = 5 for each group. DMM surgery was carried out as previous described using 10-week-old male mice[69],[70]; while Sham-operated mice were used as controls. Knee joints were collected for histological analysis 6 or 8 weeks after surgery. Osteoarthritis Research Society International (OARSI) histopathology grading system was used to evaluate the sections, six sections of the articular cartilage of each mouse were evaluated. Synovitis was assessed by the synovitis score. Therapy with oral EP4 inhibitors was initiated one day after surgery and continued for 8 weeks, n = 8 for each group. EP4 inhibitors and Celecoxib were dissolved in carboxymethylcellulose sodium which is prepared at the concentration of 0.5%, and vehicle contained carboxymethylcellulose sodium alone. The vehicle, Celecoxib, Grapiprant, and HL-43 were delivered to mice at indicated doses daily by gavage, Celecoxib purchased from damas-beta (29322B), Grapiprant was purchased from Yuduobio, Shanghai, all other EP4 antagonists were synthesized by Dr. Hankun Zhang’s lab.
Von Frey nylon filaments were used to test the hind-paw reflex sensitivity to punctate static mechanical stimuli. Mice were habituated to the wire mesh bottom cages for 30 min before the test. von Frey filaments (Aesthesio von Frey Kit, Ugo Basile, Varese, Italy) were applied from underneath the mouse in ascending order to the mid-plantar surface of the hind paws. If withdrawal response was not induced, the next level of von Frey hair was applied until at least six withdrawals occurred in ten stimuli. This minimal force required to elicit 50% positive response was recorded as the paw withdrawal threshold[73],[74].
The paw withdrawal latency (PWL) and threshold (PWT) of thermal hyperalgesia were measured using the Ugo-Basile 37370 plantar test (Comerio, Italy). The mice were placed on a glass plate of constant temperature for 30 min before each test. Thermal thresholds of the ipsilateral hind paws were assessed three times with a 10 min interval between trials. The time(s) from irradiation to paw withdrawal was recorded as the thermal withdrawal latency. […]

[2] = tested on: articular cartilage defect; experiment: Microfracture (MF) surgery-induced cartilage defect (CD) rat model; format: in vivo, Sprague-Dawley (SD) rats; settings: hydrogel containing compound; for Cartilage regeneration, appearance of the defect: 6 weeks of post-surgery
Method: Ca(NO3)2·4H2O was obtained from Sinopharm Chemical Reagent. Waxy starch (amylopectin more than 90%) was purchased from Qinhuangdao Lihua Starch. For the preparation of starch hydrogels, a fixed water-to-starch mass ratio of 5 was used, and the crosslinker Ca(NO3)2·4H2O was dissolved in the starch solution. The mixture was stirred at 60 °C for 1 h to obtain a viscous gel. The starch hydrogel prepared with Ca(NO3)2·4H2O and Waxy starch was named as 14 Gel. The hydrogel is sterilized by UV for 30 min and then used. HL-43 and Grapiprant were each dissolved in the DMSO solvent (100 mM). Compound/14 Gel was prepared by mixing the solutions at a weight ratio of 1/10 (w/w).
Thirty-six male Sprague-Dawley (SD) rats (280–300 g) were randomized into three groups (each group n = 4 rats for each time point), […] were used as controls (n = 4). After anesthetizing with 3.5% chloral hydrate (10 ml/kg), the rats were fixed on the operating table in supine position and the skin was prepared and disinfected. A 2 cm longitudinal incision along the medial margin of the patella of the right knee was made with a scalpel and then the capsule was open to expose the articular cartilage surface. A manual drill with a diameter of 2 mm was used to drill holes in the femoral intercondylar fossa of the rat (2 mm × 2 mm). After washing with saline, the gauze was pressed and 100 μl 14 Gel containing appropriate drugs or vehicle were injected. After the injection, the compression flexes and compresses were applied several times to spread the gel throughout the knee joint. The ligaments and skin were sutured. After 2, 4, and 6 weeks, the repaired articular cartilage was histologically analyzed and correlation was scored.

| SMILES | Expression of Col2, Acan, and Sox9 in knee joint [1] | Expression of Mmp13 and ColX in knee joint [1] | Cartilage repair, ICRS Macroscopic and ICRS Visual Histological scores ([2]; 4 weeks after MF surgery) | Cartilage regeneration, appearance of the defect [2] |
| --- | --- | --- | --- | --- |
| C[C@H](NC(=O)c1c(-c2ccccc2)nnn1CCOc1ccc(F)cc1)c1ccc(C(=O)O)cc1 [HL-43] | increased | decreased | mild effects on cartilage repair | surfaces were smooth and cartilage layers were regenerated |
| CCc1nc2c(C)nc(C)cc2n1-c1ccc(CCNC(=O)NS(=O)(=O)c2ccc(C)cc2)cc1 [Grapiprant] | increased | decreased |  | still visible |
